Results taken from patent US8987449B2, “Medicine for treating ischemic brain injury and its sequelae, and preparation method thereof” (Haimin Lei, priority 2011, dated 2015).

Assays:
[1] = test system: ICR mice; assay: Buccal respiration duration of mice after head cutting (4° C. icy water swimming model); format: in vivo, mouse; conditions: control 32.45 ± 5.49
Procedure: ICR mice, half female and half male, weighing 19-21 g, certificate No.: SCXK (Jing) 2006-0009, provided by BeiJing Vital River Laboratories.
LQC-T4, tetramethylpyrazine (TMP), vanillic acid, Nimodipine (ShanDong XinHua Pharmaceutical CO., Ltd, batch No.: 0908164)
160 male ICR mice were divided into 8 groups randomly by weight, each of which contained 20 mice, wherein 0.5% CMC-NA (0.2 ml·10 g^−1) was administrated intragastrically to the blank control group; 6.7 mg·kg^−1 Nimodipine (0.2 ml·10 g^−1) was administrated intragastrically to the positive control group; 100 mg·kg^−1 TMP (0.2 ml·10 g^−1) was administrated intragastrically to the TMP group, three different dosage of 200 mg·kg^−1, 100 mg·kg^−1, 50 mg·kg^−1 were administrated intragastrically to the LQC-T4 (0.2 ml·10 g^−1) group relatively, and 125 mg·kg^−1 TMP+80 mg·kg^−1 vanillitc acid (0.2 ml·10 g^−1) was administrated intragastrically respectively. The medicines were continuously administrated once a day for 10 days.
The literature was referred to: [LiuZhenquan, SunHui, Xuqiuping, etc., Experimental Study on the Brain-Protective Effect of the Effective Fraction of Naoxin Formula in the Mouse Model of with Load-Bearing Swimming in Cold Water, Journal of Beijing University of Traditional Chinese Medicine [J], 2004, 27(4): 54-56] and the method recorded therein was improved. The head was rapidly cut with a scissor at post mortem when the mouse swam in 4° C. icy water for 3 min after the final administration. After head being cut, the buccal respiration duration of mouse was recorded.
(§1) The SAS 8.2 statistical software was used to carry out the one-way ANOVA variance analysis and the difference among the groups were compared by t-test.

[2] = test system: rat cortex neurons after cerebral ischemia; assay: Brain histopathologic morphology after cerebral ischemia (HE staining of cortex); format: in vivo; conditions: MCAO rats, compared with model group
Procedure: The same as effect example 4
10% chloral hydrate (0.35 g/kg) was injected into the abdominal cavity of a rat to anesthetize thereof. The thoracic cavity was cut to expose the heart fully. It was intubated through left ventricle. Firstly, it was washed with 37[…] saline solution 300 ml and perfused with pre-cooled 4% paraformaldehyde phosphate buffer solution (pH 7.2). When the rat was adequately fixed and the body was stiff, the head was cut and the brain was taken rapidly. And the brain was dipped into 4% paraformaldehyde solution and fixed for 24 h. Next, it was put into tissue vacuum hydroextractor, was dehydrated with gradient ethanol, made transparent with xylene, and imbedded into paraffin. 3-5 examples were taken for each group. And then 3 mm-4 mm tissue block from chiasma opticum towards caudal end at coronal position was taken, wherein the thickness of brain slice was 3 μm.
The rat cortex damage after cerebral ischemia and the effect of the medicine were observed through HE staining.

[3] = test system: VEGF; assay: VEGF expression in the cortex infarction zone (immunohistochemistry SP two-step method); format: in vivo, rat; conditions: MCAO rats, vs model group
[4] = test system: rat primary cortical neurons; assay: Proliferation of primary neuronal cells by MTT and morphology observation; format: cell-based; conditions: for MTT(A540), 24 h after the administration: normal neurons, control 0.7567 ± 0.1109
Procedure: SD pregnant rats: pregnant for 16-18 d, certificate number: SCXK (Jing) 2006-0009, provided by BeiJing Vital River Laboratories.
LQC-T4 (prepared by the method of example 5), the purity was ≧98%, determined by high performance liquid chromatography (HPLC), which met the requirement of the experiment. The powder was carefully sealed and preserved at 4° C. The prepared LQC-T4 was dissolved using dimethyl sulfoxide and made into […] storing liquid for use.
Referring to the document [HongQingtao, TangYipeng, Neurons of cerebral cortex of newborn rats in in vitro primary culture, Chinese Journal of Neuroanatomy, 1994, 10(3):259-262], the pregnant 16-18 d SD rat was executed by dislocation. The fetal rat was taken out in an aseptic environment, the meninges and blood steak were stripped, the cortex was separated and cut into 1 mm^3 tissue block (all carried out on ice). The tissue block was digested at 37[…] with 0.1% pancreatic enzyme-0.02% EDTA for 20 min. Digesting was stopped using DMEM containing fetal calf serum and the number of the cells was adjusted to 5×10^5 cells ml^−1. The resultant cells were inoculated into a 96 well plate treated by 0.001% polylysine and the plate was put in a 37° C. 5% CO2 incubation box to be cultured. The cultivation liquid was changed (totally) after 48 h and add adenine arabinoside was added (final concentration is 5 μM) to inhibit the excessive proliferation of non-neurons. The cultivation liquid was changed after 48 h with fresh cultivation liquid and culture was continued. And the cultivation liquid was changed every 3 days afterward.
The cultivation liquid was sucked away on the eighth day of neuron culture. DMEM culture-medium containing 0.15% DMSO was added to the blank group, while 60 μM, 30 μM, 15 μM LQC-T4, 60 μM tetramethylpyrazine and 60 μM vanillic acid were respectively added to the administration group. Ten parallel wells were set as a group. And they were put into a 37° C., 5% CO2 incubation box to continue culturing for 24 h.
5 mg/ml MTT 20 μl was added to each well at the time of 4 h before the experiment ended and the cultivation liquid was sucked away. DMSO 200 μl was added to each well. When the purple particles were completely dissolved, the enzyme-linked immune assay was used to measure the optical density at 540 nm.
as §1

| SMILES | respiration duration ([1]; 6.7 mg/kg intragastrically once a day for 10 days) [s] | remaining of the complete neuron of the rat cortex after cerebral ischemia (HE staining) ([2]; TMP group) | respiration duration ([1]; 125 mg/kg intragastrically once a day for 10 days) [s] | VEGF expression in the rat cerebral infarction zone ([3]; TMP group) | MTT(A540), 24 h after the administration ([4]; 60 μM) | remaining of the complete neuron of the rat cortex after cerebral ischemia (HE staining) ([2]; 60 mg/kg) | remaining of the complete neuron of the rat cortex after cerebral ischemia (HE staining) ([2]; 120 mg/kg) | respiration duration ([1]; 50 mg/kg intragastrically once a day for 10 days) [s] | respiration duration ([1]; 100 mg/kg intragastrically once a day for 10 days) [s] | respiration duration ([1]; 200 mg/kg intragastrically once a day for 10 days) [s] | VEGF expression in the rat cerebral infarction zone ([3]; 60 mg/kg small dosage group) | VEGF expression in the rat cerebral infarction zone ([3]; 120 mg/kg large dosage group) | MTT(A540), 24 h after the administration ([4]; 15 μM) | MTT(A540), 24 h after the administration ([4]; 30 μM) | promoting effect on the growth of normal neurons ([4]; 24 h after the administration, P>0.05, result in words) | morphology observation of primary neuronal cells ([4]; phase contrast microscope, vs normal group) |
| --- | --- | --- | --- | --- | --- | --- | --- | --- | --- | --- | --- | --- | --- | --- | --- | --- |
| COCCOC(=O)C1=C(C)NC(C)=C(C(=O)OC(C)C)C1c1cccc([N+](=O)[O-])c1 (centres unmarked) [Nimodipine, reference compound] | 37.23 ± 5.37 |  |  |  |  |  |  |  |  |  |  |  |  |  |  |  |
| Cc1nc(C)c(C)nc1C [TMP, tetramethylpyrazine, reference compound] |  | a lower level of damage compared with the model group | 37.26 ± 5.99 | more than that of the model group | 0.8710 ± 0.1350 |  |  |  |  |  |  |  |  |  |  |  |
| COc1cc(C(=O)OCc2nc(C)c(C)nc2C)ccc1OCc1nc(C)c(C)nc1C [LQC-T4, (3,5,6-trimethylpyrazine-2-yl)methyl 3-methoxy-4-((3,5,6-trimethylpyrazine-2-yl)methoxy) benzoate] |  |  |  |  | 0.8106 ± 0.2415 | a larger amount of neurons which were distinct and complete in structure | a larger amount of neurons which were distinct and complete in structure | 36.78 ± 5.40 | 36.07 ± 3.15 | 35.91 ± 4.25 | more than that of the model group | more than that of the model group | 0.9175 ± 0.2300 | 0.9114 ± 0.1599 | greater than that of the tetramethylpyrazine group and the vanillic acid group | more prosperous in growth and their protrusions formed a network |
